In the test the target is T1, IDO (IFNγ-treated Hela cells) (Homo sapiens, UniProt P14902).
T1 construct: endogenous in cells; host or cells: Hela cells treated with IFNγ (10 ng/ml)
Put plainly: IDO Kynurenine Assay with Hela Cells. The note with it: IFNγ 10 ng/ml, 20 hours incubation, kynurenine absorbance at 490 nm, read-out: Hela Cells LLE_IDO_ABS_DR (IC50). It counts as cell-based. As to the method: IDO Kynurenine Assay with Hela Cells
Hela cells were seeded at 30,000 cells per well in 40 ul RPMI/phenol red free media contains 10% FBS in a 384-well black wall clear bottom tissue culture plate (Matrix Technologies LLC). 270 nl of certain concentration of compound was then added to each well using ECHO liquid handling systems. 40 ul of IFNγ (R&D, 285-IF-100) at final concentration of 10 ng/ml was then added to column 2-24 with media to column 1 as control. The cells were incubated for 20 hours in 37° C. incubator with 5% CO2.
The compound treatments were stopped by adding trichloroacetic acid (Sigma-Aldrich) to a final concentration at 0.2%. The cell plate was further incubated at 50° C. for 30 minute. The equal volume supernatant (20 uL) and 0.2% (w/v) Ehrlich reagent (4-dimethylaminobenzaldehyde, Sigma-Aldrich) in glacial acetic acid were mixed in a new clear bottom 384-well plate. This plate was then incubated at room temperature for 30 minute. The absorbance at 490 nm was measured on Envision plate reader.
Compound IC50 values were calculated using the counts of no IFNγ control as one hundred percent inhibition, and counts of no compound but DMSO treatment as zero percent inhibition.

pIC50: −log10 of the molar value.

Usually pIC50 stands for −log10 of the IC50, conventionally taken in molar units.

T1 sequence (P14902 whole entry): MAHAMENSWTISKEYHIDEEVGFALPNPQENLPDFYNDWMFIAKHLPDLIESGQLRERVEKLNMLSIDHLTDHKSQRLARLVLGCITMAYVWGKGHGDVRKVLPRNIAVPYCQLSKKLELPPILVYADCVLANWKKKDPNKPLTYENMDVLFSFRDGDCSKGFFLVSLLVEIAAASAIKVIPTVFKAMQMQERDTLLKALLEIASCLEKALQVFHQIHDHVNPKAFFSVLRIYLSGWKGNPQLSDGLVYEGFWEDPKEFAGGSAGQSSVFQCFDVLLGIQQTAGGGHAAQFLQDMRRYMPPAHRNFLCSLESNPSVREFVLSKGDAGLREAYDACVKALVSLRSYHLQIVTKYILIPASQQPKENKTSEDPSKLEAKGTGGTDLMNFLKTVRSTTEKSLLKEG

With `CC(C)CN(CC(C)C)c1ccc(-c2ccccc2-c2nnn[nH]2)cc1NC(=O)Cc1ccc(O)cc1` [Example 28], the pIC50 is 7.05. `COc1ccc(CC(=O)Nc2cc(-c3ccccc3-c3nnn[nH]3)ccc2N(CC(C)C)CC(C)C)cc1` [Example 11, N-(4-(diisobutylamino)-2′-(1H-tetrazol-5-yl)biphenyl-3-yl)-2-(4-methoxyphenyl)acetamide]: the negative-log IC50 (pIC50) is 8.39. As to `CC(C)CN(CC(C)C)c1ccc(-c2ccccc2-c2nnn[nH]2)cc1NC(=O)Cc1ccccc1C(F)(F)F` [Example 26], the pIC50 was 7.30.

Regarding `CC(C)CN(CC(C)C)c1ccc(-c2ccccc2-c2nnn[nH]2)cc1NC(=O)Cc1ccccc1F` [Example 19, N-(4-(diisobutylamino)-2′-(1H-tetrazol-5-yl)biphenyl-3-yl)-2-(2-fluorophenyl)acetamide], the pIC50 is 7.70. Consider `CC(C)CN(c1ccc(-c2ccccc2C(=O)O)cc1NC(=O)Cc1ccccc1F)C1CCCCC1` [Example 5, 4′-(cyclohexyl(isobutyl)amino)-3′-(2-(2-fluorophenyl)acetamido) biphenyl-2-carboxylic acid], for which the negative-log IC50 (pIC50) is 7.40. As for `CC(C)(C)CC(=O)Nc1cc(-c2ccccc2-c2nnn[nH]2)ccc1N1CC2CC1CN2Cc1ccccc1` (stereo not drawn) [Example 82], the pIC50 is 5.44. As for `Cc1noc(C)c1CC(=O)Nc1cc(-c2ccccc2-c2nnn[nH]2)ccc1N(CC(C)C)CC(C)C` [Example 37], the pIC50 was 5.89. Turning to `COc1ccc(OC(=O)Nc2cc(-c3ccccc3-c3nnn[nH]3)ccc2N(CC(C)C)CC(C)C)cc1F` [Example 52, 3-fluoro-4-methoxyphenyl (4-(diisobutylamino)-2′-(1H-tetrazol-5-yl)-[1,1′-biphenyl]-3-yl) carbamate], the pIC50 is 5.18. For `CC(C)CN(CC(C)C)c1ccc(-c2ccccc2-c2nnn[nH]2)cc1NC(=O)CN1CCOCC1` [Example 38], the negative logarithm of the IC50 (pIC50) is 5.60. Regarding `CC(C)CN(c1ccc(-c2ccccc2C(=O)O)cc1NC(=O)Cc1ccccc1C(F)(F)F)C1CCCCC1` [Example 8, 4′-(cyclohexyl(isobutyl)amino)-3′-(2-(2-(trifluoromethyl)phenyl)acetamido)biphenyl-2-carboxylic acid], the pIC50 is 6.03. In the case of `CC(C)CN(Cc1ccccc1)c1ccc(-c2ccccc2-c2nnn[nH]2)cc1NC(=O)Cc1ccc(C#N)cc1` [Example 54], the negative-log IC50 (pIC50) is 8.00. Take `CC(C)CN(CC(C)C)c1ccc(-c2ccccc2-c2nnn[nH]2)cc1NC(=O)Cc1cccnc1` [Example 31]: the negative logarithm of the IC50 (pIC50) is 7.15. With `CC(C)CN(CC(C)C)c1ccc(-c2ccccc2-c2nnn[nH]2)cc1NC(=O)Cc1cccc(C(F)(F)F)c1` [Example 27], the pIC50 is 6.80. Consider `CC(C)CN(c1ccc(-c2ccccc2-c2nnn[nH]2)cc1NC(=O)Cc1ccccc1C(F)(F)F)C1CCCCC1` [Example 7, N-(4-(cyclohexyl(isobutyl)amino)-2′-(1H-tetrazol-5-yl)biphenyl-3-yl)-2-(2-(trifluoromethyl)phenyl)acetamide], for which the pIC50 is 6.89. As to `CC(C)CN(CC(C)C)c1ccc(-c2ccccc2-c2nnn[nH]2)cc1NC(=O)Cc1ccc(OC(F)(F)F)cc1` [Example 15, N-(4-(diisobutylamino)-2′-(1H-tetrazol-5-yl)biphenyl-3-yl)-2-(4-(trifluoromethoxy)phenyl)acetamide], the negative logarithm of the IC50 (pIC50) was 7.05. For `Cc1ccc(OCC(=O)Nc2cc(-c3ccccc3-c3nnn[nH]3)ccc2N(CC(C)C)CC(C)C)cc1` [Example 40], the pIC50 was 6.80. With `CC(C)CN(CC(C)C)c1ccc(-c2ccccc2-c2nnn[nH]2)cc1NC(=O)Cc1ccccc1Cl` [Example 25] the figure was 7.70; with `COc1ccc(CC(=O)Nc2cc(-c3ccccc3-c3nnn[nH]3)ccc2N(CC(C)C)CC(C)C)c(C(F)(F)F)c1` [Example 18, N-(4-(diisobutylamino)-2′-(1H-tetrazol-5-yl)biphenyl-3-yl)-2-(4-methoxy-2-(trifluoromethyl)phenyl)acetamide], 7.40; with `COCCOCC(=O)Nc1cc(-c2ccccc2-c2nnn[nH]2)ccc1N(CC(C)C)CC(C)C` [Example 41], 5.74. As for `CC(C)CN(CC(C)C)c1ccc(-c2ccccc2-c2nnn[nH]2)cc1NC(=O)COc1cccnc1` [Example 42], the pIC50 was 6.30. As to `CC(C)CN(CC(C)C)c1ccc(-c2ccccc2-c2nnn[nH]2)cc1NC(=O)Cc1ccc(Oc2ccccc2)cc1` [Example 34], the pIC50 is 6.60.

Take `O=C(Cc1ccccc1C(F)(F)F)Nc1cc(-c2ccccc2-c2nnn[nH]2)ccc1-n1cccn1` [Example 76]: the pIC50 was 6.55. On to `CC(C)CN(CC(C)C)c1ccc(-c2ccccc2-c2nnn[nH]2)cc1NC(=O)CC#N` [Example 23], for which the pIC50 was 6.55.

For `CC(C)CN(CC(C)C)c1ccc(-c2ccccc2-c2nnn[nH]2)cc1NC(=O)CC(F)(F)F` [Example 35], the pIC50 was 6.57. With `Cc1ccc(CC(=O)Nc2cc(-c3ccccc3-c3nnn[nH]3)ccc2N(CC(C)C)CC(C)C)cc1` [Example 2, N-(4-(Diisobutylamino)-2′-(1H-tetrazol-5-yl)biphenyl-3-yl)-2-p-tolylacetamide] the figure was 8.30. With `Cc1ccc(CC(=O)Nc2cc(-c3cc(F)ccc3C(=O)O)ccc2N(CC(C)C)CC(C)C)cc1` [Example 1, 4′-(Diisobutylamino)-5-fluoro-3′-(2-p-tolylacetamido)biphenyl-2-carboxylic acid], the negative logarithm of the IC50 (pIC50) is 8.00. `N#Cc1ccc(CC(=O)Nc2cc(-c3ccccc3-c3nnn[nH]3)ccc2N2CC3CC2CN3Cc2ccccc2)cc1` (stereo not drawn) [Example 79]: the pIC50 was 5.60. For the compound `CC(C)CN(CC(C)C)c1ccc(-c2ccccc2-c2nnn[nH]2)cc1NC(=O)Cc1ccc(C(C)C)cc1` [Example 13, N-(4-(diisobutylamino)-2′-(1H-tetrazol-5-yl)biphenyl-3-yl)-2-(4-isopropylphenyl) acetamide], the pIC50 was 5.88. On to `Cc1ccc(CC(=O)Nc2cc(-c3ccccc3-c3nnn[nH]3)ccc2N2C[C@H](C)C[C@H](C)C2)cc1` [Example 21, N-(4-(cis-3,5-Dimethylpiperidin-1-yl)-2′-(1H-tetrazol-5-yl)-[1,1′-biphenyl]-3-yl)-2-(p-tolyl)acetamide], for which the pIC50 was 6.28.

For `CC(C)CN(Cc1ccccc1)c1ccc(-c2ccccc2-c2nnn[nH]2)cc1NC(=O)Cc1ccccc1C(F)(F)F` [Example 3, N,N-(4-(Benzyl(isobutyl)amino)-2′-(1H-tetrazol-5-yl)biphenyl-3-yl)-2-(2-(trifluoromethyl)phenyl)acetamide], the pIC50 is 7.70. Regarding `CC(C)(C)CC(=O)Nc1cc(-c2ccccc2-c2nnn[nH]2)ccc1-n1cccn1` [Example 78], the negative logarithm of the IC50 (pIC50) was 5.35. With `COc1ccc(OC(=O)Nc2cc(-c3ccccc3-c3nnn[nH]3)ccc2N(CC(C)C)CC(C)C)cc1` [Example 50, 4-methoxyphenyl (4-(diisobutylamino)-2′-(1H-tetrazol-5-yl)-[1,1′-biphenyl]-3-yl)carbamate] the figure was 6.92; with `CC(C)CN(CC(C)C)c1ccc(-c2ccccc2-c2nnn[nH]2)cc1NC(=O)Cc1cccc(F)c1F` [Example 39], 7.30; with `Cc1ccc(CC(=O)Nc2cc(-c3ccccc3-c3nnn[nH]3)ccc2N2CCC(F)(F)C2)cc1` [Example 75], 5.74. For `Cc1ccc(CC(=O)Nc2cc(-c3ccccc3C(=O)O)ccc2N(CC(C)C)CC(C)C)cc1` [Example 4, 4′-(diisobutylamino)-3′-(2-p-tolylacetamido) biphenyl-2-carboxylic acid], the pIC50 was 8.00. As to `Cc1nc(CC(=O)Nc2cc(-c3ccccc3-c3nnn[nH]3)ccc2N(CC(C)C)CC(C)C)cs1` [Example 36], the negative logarithm of the IC50 (pIC50) is 6.40. As for `CC(C)CN(CC(C)C)c1ccc(-c2ccccc2-c2nnn[nH]2)cc1NC(=O)CC1CC1` [Example 33], the pIC50 is 6.30. With `CC(C)CN(CC(C)C)c1ccc(-c2ccccc2-c2nnn[nH]2)cc1NC(=O)Oc1ccc(OCc2ccccc2)cc1` [Example 53, 4-(benzyloxy)phenyl (4-(diisobutylamino)-2′-(1H-tetrazol-5-yl)-[1,1′-biphenyl]-3-yl)carbamate] the figure was 5.49; with `C[C@@H]1C[C@H](C)CN(c2ccc(-c3ccccc3-c3nnn[nH]3)cc2NC(=O)Cc2ccc(F)cc2)C1` [Example 22, N-(4-(cis-3,5-Dimethylpiperidin-1-yl)-2′-(1H-tetrazol-5-yl)-[1,1′-biphenyl]-3-yl)-2-(4-fluorophenyl)acetamide], 5.92. Turning to `CC(C)CN(Cc1ccccc1)c1ccc(-c2ccccc2-c2nnn[nH]2)cc1NC(=O)[C@H](O)c1ccccc1` [Example 48, (R)—N-(4-(Benzyl(isobutyl)amino)-2′-(1H-tetrazol-5-yl)biphenyl-3-yl)-2-hydroxy-2-phenylacetamide], the negative-log IC50 (pIC50) is 5.79. On to `CC(C)CN(CC(C)C)c1ccc(-c2ccccc2-c2nnn[nH]2)cc1NC(=O)CS(=O)(=O)c1ccccc1` [Example 32], for which the pIC50 is 5.40.

For the compound `CC(C)CN(CC(C)C)c1ccc(-c2ccccc2-c2nnn[nH]2)cc1NC(=O)Cc1ccc(Cl)cc1` [Example 17, 2-(4-chlorophenyl)-N-(4-(diisobutylamino)-2′-(1H-tetrazol-5-yl)biphenyl-3-yl)acetamide], the negative logarithm of the IC50 (pIC50) is 8.35.

The values above are taken from patent US9895330B2, “IDO inhibitors” (BRISTOL-MYERS SQUIBB COMPANY, priority 2013, dated 2018).
